According to patent publication US20060153789A1, “Stimulation of hair regrowth” (priority 2002, published 2006):

How the values were obtained:
[1] = tested on: C57BL/6 mouse irradiated with 7.5 Gy gamma radiation; experiment: Hair regrowth in an irradiated mouse (Example 1); type: in vivo; conditions: 12 days of treatment, FIG. 1A, untreated control showed no new growth hair
Text: FIG. 1A. A C57BL/6 mouse irradiated with 7.5 Gy gamma radiation on Sep. 24, 2003 and given 12 days of [Sar, Met(02)^11]-substance P (Homspera™) treatment.
FIG. 1B. A C57BL/6 mouse irradiated with 7.5 Gy gamma radiation on Sep. 24, 2003 and given no Homspera™ treatment.
A C57BL/6 mouse was irradiated with 7.5 Gy gamma radiation on Sep. 24, 2003 and given 12 days of [Sar, Met(02)^11]-substance P (Homspera™) treatment. […] As a control, a C57BL/was 6 mouse irradiated with 7.5 Gy gamma radiation on Sep. 24, 2003 and given no Homspera™ treatment. No new growth hair was observed.

[2] = tested on: C57BL/6 mice given Cobalt 60 gamma radiation; experiment: Restoration of radiation-induced hair loss in mice, aerosol treatment (Example 2); type: in vivo, mouse; conditions: mice pre-exposed to 5 Gy or 2.5 Gy, then 10 Gy at day 75; hair loss over approximately 20% of body; one micromolar by aerosol 15 min/day, 9 days of treatment
Description: C57BL/6 mice were given a Cobalt 60 gamma radiation treatment on Sep. 24, 2002 of either 10 Gy, 7.5 Gy, 5 Gy, or 2.5 Gy. The 10 Gy mice died at an average of 11.3 days after the radiation exposure. All of the other mice in the other radiation exposure groups survived at least until Dec. 18, 2002. At 75 days after the initial radiation exposure, the 5 Gy and 2.5 Gy mice were administered a 10 Gy dose of Cobalt 60 gamma radiation. On the day of the second 10 Gy radiation exposure, it was noted that the 5 Gy and 2.5 Gy mice had hair loss over approximately 20% of their body with the most significant hair loss in their leg areas and around their ears. Half of the 5 Gy and 2.5 Gy (N=10) mice were administered a one micromolar Homspera™ dose by aerosol for 15 min/day beginning the day of the 10 Gy radiation exposure.

[3] = tested on: C57BL/6 mice, lethal dose of gamma radiation (7.75 Gy); experiment: Hair retention and immune status after a lethal dose of gamma radiation (Example 3); type: in vivo, mouse; conditions: for hair retention: photographed at Day +56 and Day +90 after radiation
Text: FIG. 2A. Group 1 (90 day treatment of Homspera™) mice photographed at day 56 after radiation.
FIG. 2B. Group 2 (35 day treatment of Homspera™) mice photographed at day 56 after radiation.
FIG. 2C. Group 1 (90 day treatment of Homspera™) mice photographed at day 90 after radiation.
FIG. 2D. Group 2 (35 day treatment of Homspera™) mice photographed at day 90 after radiation.
C57BL/6 mice were divided into three groups. Groups 1 and 2 underwent a lethal dose of gammna radiation (7.75 Gy) on July 11th. Group 1 mice were treated with Homspera™ (50 micromolar for 35 days and then a maintenance dose of 10 micromolar until +90 days), and then they were killed at +90 days post-lethal radiation (October 9th). Their immune system status was normal compared to control mice (Group 3) that had not been treated with radiation and had not been treated with Homspera™. Group 2 mice received Homspera™ treatment for 35 days after radiation, and then the Homspera™ treatment was completely stopped.
There are two sets of pictures of the Group 1 and Group 2 mice: one set of pictures taken on September 5th at Day +56 after radiation (FIGS. 2A and 2B), and the other on October 9th at Day +90 after radiation (FIGS. 2C and 2D).

## [Sar, Met(02)^11]-substance P [Homspera™]
[1]
  new hair growth: New growth (black) hair was observed
[2]
  restoration of hair loss: restored their hair loss
[3]; Group 1: 7.75 Gy, 90 day treatment
  hair retention: retained their hair
[3]; Group 1: 7.75 Gy, 50 micromolar for 35 days, then 10 micromolar until +90 days, at +90 days, compared to untreated non-irradiated control mice (Group 3)
  immune system status: normal
[3]; Group 2: 7.75 Gy, 35 day treatment then stopped
  hair retention: retained their hair
